Measurements reported in patent publication US4216324A, “1-Difluoromethyl-6,7-methylenedioxy-1,4-dihyd ro-4-oxo-3-quinolinecarboxylic acid” (E. I. Du Pont de Nemours and Company, priority 1978, dated 1980).
≈ marks a conversion by molar mass, not a printed value. Read-outs that look alike come from different tables or passages of the source.

Legend:
[1] = system: Aero. cloacae; assay: In vitro minimum inhibitory concentration (MIC), tube dilution test; assay type: cell-based; conditions: Enterobacter cloacae; Aero. cloacae (39A); brain-heart infusion broth, 20hour incubation at 37° C.; read-out: Minimal Inhibitory Test Conens. (MIC)
Protocol: (§1) A. In vitro: mimimum inhibitory concentration (MIC)
(§2) The compound was tested in a standard bacteriological tube dilution test for MIC for a variety of bacteria. Stock cultures of the bacteria listed in Table 1 were grown in bacterial culture media at 37° C. overnight and diluted in culture tubes to a previously determined concentration proper for the test. The compound was added to result in final concentrations of 10, 2, 0.4 and 0.08 μg/ml. These were incubated for 18 hours at 37° C. and then observed to determine if growth of bacteria had occurred. The lowest concentration of the compound that inhibited bacterial growth in the MIC.
(§3) *brain-heart infusion broth, 20hour incubation at 37° C.

[2] = system: Sal typhosa; assay: as above; assay type: cell-based; conditions: read-out: Minimal Inhibitory Test Conens. (MIC)
Protocol: as §1, §2, §3

[3] = system: Escherichia coli; assay: Escherichia coli (mouse infections); assay type: in vivo; conditions: female white mice, oral, at infection and again 4 hours after, 72 hours, Reed-Muench, read-out: ED50 (dose effective to save 50% of the mice)
Protocol: 1. Escherichia coli (mouse infections)
(§4) Female white mice weighing approximately 20 grams were infected by injecting a sufficient number of E. coli cells intraperitoneally to cause 85-100% fatalities within 3 days after infection. Groups of 12 such infected mice were dosed orally by intubation with the compound suspended in water to equal 40, 20, 10 and 5 mg/kg at the time of infection and again 4 hours after infection time. […] The dose effective to save 50% of the mice (ED50) was calculated by the Reed-Muench method (Reed, L. J. Muench, H. A Single Method of Estimating 50% Endpoints, Am. J. Hygiene 27, p. 493-497 (1938)).

[4] = system: Staphylococcus aureus; assay: Staphylococcus aureus (mouse infections); assay type: in vivo; conditions: female white mice, oral, at infection and again 4 hours after, 72 hours, Reed-Muench, read-out: ED50 (dose effective to save 50% of the mice)
Protocol: as §4
2. Staphylococcus aureus (mouse infections)
The same methods as the previous test were used, except the compound concentrations were 400, 200, 100 and 50 mg/kg. The ED50 's appear in Table 2.

[5] = system: mice; assay: General pharmacology screen in mice; conditions: summary in words of Tables 3 and 4 (mice and rats)
Protocol: 17- to 24-hour fasted female white mice, 16-20 g. each, or rats, 70-90 g. each were dosed orally with test drug (or standard) at 0, 4, 12, 36, 108 or 324 mg./kg.
Ataxia--The mouse or rat was placed upright on the bench top facing away from the observer. Motor incoordination manifested by abnormal gait or lack of precision during purposive movements constituted ataxia.
Vertical Bar--The mouse or rat was swung by the tail with head pointing down to a 0.5" diameter (1" diameter for rats), 30.5 cm long vertical rod covered with adhesive tape. Inability to grip the rod with the front paws, sliding or failure to move after being prodded constituted vertical bar loss.
Body Temperature--The rectal temperatures of the mice and rats were taken using a KC-1 thermocouple probe.
Excitement and Irritability--Increased spontaneous motor activity, running and jumping prior to handling were recorded as excitement. Upon handling, jumping, jerking, biting and squeaking were recorded as irritability.
Anorexia--At the end of the 0.5 hour testing period, each mouse was transferred to an individual, clear, Lucite® compartment (13.3 cm×12.7 cm×12.7 cm) with a 0.64 cm×0.64 cm wire mesh floor. Inside each compartment there was a section of a black Lucite® bar [13 cm×1.2 cm×1.2 cm) with ten spot depressions (0.8 cm diameter) each containing 0.05 ml. of 50% sweetened condensed milk. 30 Minutes later the number of milk spots consumed was counted. 5 Mice per drug dose can drink a maximum of 50 spots (2.5 ml. of milk). 15 or fewer spots consumed by 5 mice constituted anorexia.

[6] = system: bacteria; conditions: Ronald et al., New England Journal of Medicine, 1966; cited from earlier work
[7] = cited from earlier work; for undesirable side effects: Cox, Delaware Medical Journal, 1970

| SMILES | MIC [1] | MIC ([2]; 20 h) | ED50 [3] | ED50 [4] | untoward effects in the general pharmacology screen [5] | bacterial resistance [6] | undesirable side effects [7] | MIC ([2]; Sal typhosa (02D), brain-heart infusion broth, 20hour incubation at 37° C.) | toxicity, use in therapy of urinary tract infections ([7]; Kershaw and Leigh, 1975) |
| --- | --- | --- | --- | --- | --- | --- | --- | --- | --- |
| O=C(O)c1cn(C(F)F)c2cc3c(cc2c1=O)OCO3 [DFMQ, 1-difluoromethyl-6,7-methylenedioxy-1,4-dihydro-4-oxo-3-quinolinecarboxylic acid] | < 0.08 µg/mL | < 0.08 µg/mL | 9.9 mg/kg | 149 mg/kg |  |  |  |  |  |
| CCn1cc(C(=O)O)c(=O)c2ccc(C)nc21 [Nalidixic Acid, nalidixic acid] | 2 µg/mL (≈ 8.61 µM) |  |  |  | produced some ataxia, and anorexia | tendency to rapidly evoke bacterial resistance | a relatively high incidence of side effects |  |  |
| CCn1cc(C(=O)O)c(=O)c2cc3c(cc21)OCO3 [Oxolinic Acid, oxolinic acid] | < 0.08 µg/mL |  |  |  | produced ataxia, anorexia, excitation, and irritability |  | a high incidence of undesirable side effects | 0.4 µg/mL (≈ 1.53 µM) | because of toxicity, "it should not be used as a first-line drug in the therapy of urinary tract infections." |
